Where two headings read alike, the source gives them in different places.
What was measured:
HepG2-A16-CD81EGFP cells = conditions: sheet 2nd round; for IC50: read-out: Tox_IC50, HepG2 cytotoxicity; for Tox_max_inhibition (%): maximal inhibition in dose response
[1] = tested on: Plasmodium berghei (Pb-Luc) exoerythrocytic-stage parasites; conditions: for normalized signal at concentration 10 / normalized signal at concentration 0.000508053 / normalized signal at concentration 0.00152416 / normalized signal at concentration 0.00457247 / normalized signal at concentration 0.0137174 / normalized signal at concentration 0.0411523 / normalized signal at concentration 0.123457 / normalized signal at concentration 0.37037 / normalized signal at concentration 1.11111 / normalized signal at concentration 3.33333: fraction of control; for IC50: read-out: PbLuc_IC50; for IC50 / PbLuc_max_inhibition (%): sheet 2nd round; for PbLuc_max_inhibition (%): maximal inhibition in dose response
[2] = first series of dose-response columns
[3] = second series of dose-response columns
[4] = second series of columns (replicate)

## C[C@@H]1CN([C@H](C)CO)C(=O)c2cc(N(C)C)ccc2O[C@@H](C)CCCCO[C@H]1CN(C)S(=O)(=O)c1ccc(F)cc1 [BRD-K72687327-001-01-6]
HepG2-A16-CD81EGFP cells
  IC50: > 10 µM
  Tox_max_inhibition (%): 11%
[1]; [2]
  normalized signal at concentration 10: 0.73
[1]; first series
  normalized signal at concentration 0.000508053: 1.09
  normalized signal at concentration 0.00152416: 1.10
  normalized signal at concentration 0.00457247: 0.91
  normalized signal at concentration 0.0137174: 1.11
  normalized signal at concentration 0.0411523: 0.89
  normalized signal at concentration 0.123457: 0.84
  normalized signal at concentration 0.37037: 0.92
  normalized signal at concentration 1.11111: 0.97
  normalized signal at concentration 3.33333: 1.01
[1]; Broad compounds, dose response
  IC50: > 10 µM
[1]; [3]
  normalized signal at concentration 10: 0.75
[1]; second series
  normalized signal at concentration 0.000508053: 0.96
  normalized signal at concentration 0.00152416: 1.08
  normalized signal at concentration 0.00457247: 0.94
  normalized signal at concentration 0.0137174: 1.05
  normalized signal at concentration 0.0411523: 1.15
  normalized signal at concentration 0.123457: 0.88
  normalized signal at concentration 0.37037: 1.15
  normalized signal at concentration 1.11111: 1.02
  normalized signal at concentration 3.33333: 1.11
[1]
  PbLuc_max_inhibition (%): 27%

## COc1ccccc1NC(=O)N1C[C@@H]2N[C@H](C1)C2c1ccc(/C=C/c2ccccc2)cc1 (stereo partly drawn) [BRD-K72765192-019-01-4]
HepG2-A16-CD81EGFP cells
  IC50: > 10 µM
  Tox_max_inhibition (%): 5.61%
[1]; first series of columns
  normalized signal at concentration 0.000508053: 0.9244
  normalized signal at concentration 0.00152416: 0.9767
  normalized signal at concentration 0.00457247: 0.9222
  normalized signal at concentration 0.0137174: 1.063
  normalized signal at concentration 0.0411523: 0.9659
  normalized signal at concentration 0.123457: 0.9808
  normalized signal at concentration 0.37037: 1.083
  normalized signal at concentration 1.11111: 0.9875
  normalized signal at concentration 3.33333: 1.091
  normalized signal at concentration 10: 0.9372
[1]; Pb-Luc exoerythrocytic stage, 10-point dose response, top concentration 10
  IC50: > 10 µM
[1]; [4]
  normalized signal at concentration 0.000508053: 0.82
  normalized signal at concentration 0.00152416: 0.9053
  normalized signal at concentration 0.00457247: 1.027
  normalized signal at concentration 0.0137174: 0.8721
  normalized signal at concentration 0.0411523: 0.9154
  normalized signal at concentration 0.123457: 0.911
  normalized signal at concentration 0.37037: 1.02
  normalized signal at concentration 1.11111: 0.9038
  normalized signal at concentration 3.33333: 0.8733
  normalized signal at concentration 10: 0.8146
[1]
  PbLuc_max_inhibition (%): 19%

## C[C@@H]1CCCCO[C@@H](CN(C)S(=O)(=O)c2ccc(F)cc2)[C@@H](C)CN([C@@H](C)CO)C(=O)c2cc(N(C)C)ccc2O1 [BRD-K74261250-001-01-9]
HepG2-A16-CD81EGFP cells
  IC50: > 10 µM
  Tox_max_inhibition (%): 6.44%
[1]; [2]
  normalized signal at concentration 10: 0.8467
[1]; first series
  normalized signal at concentration 0.000508053: 1.172
  normalized signal at concentration 0.00152416: 0.9183
  normalized signal at concentration 0.00457247: 0.77
  normalized signal at concentration 0.0137174: 1.0389
  normalized signal at concentration 0.0411523: 0.8236
  normalized signal at concentration 0.123457: 0.9547
  normalized signal at concentration 0.37037: 1.005
  normalized signal at concentration 1.11111: 0.9156
  normalized signal at concentration 3.33333: 1.13
[1]; Broad compounds, dose response
  IC50: > 10 µM
[1]; [3]
  normalized signal at concentration 10: 0.7483
[1]; second series
  normalized signal at concentration 0.000508053: 1.01
  normalized signal at concentration 0.00152416: 0.834
  normalized signal at concentration 0.00457247: 1.154
  normalized signal at concentration 0.0137174: 0.7879
  normalized signal at concentration 0.0411523: 0.9255
  normalized signal at concentration 0.123457: 1.124
  normalized signal at concentration 0.37037: 0.8451
  normalized signal at concentration 1.11111: 0.9426
  normalized signal at concentration 3.33333: 1.1
[1]
  PbLuc_max_inhibition (%): 25%
